Converted amounts (≈) assume the structure as drawn. Where two headings read alike, the source gives them in different places. Bridge positions count the residues as written; N and C are the ends. Square brackets hold non-standard residues; d marks the D form. Peptide text beside a SMILES is read from it. Trp(1-Me) = Cn1cc(C[C@H](N)C(=O)O)c2ccccc21; NMeI = CC[C@H](C)[C@H](NC)C(=O)O; Sar = CNCC(=O)O
Tests used:
[1] = system: classical pathway of complement; assay: ELISA inhibition of classical pathway complement activation; type: biochemical; settings: read-out: IC50, peptide concentration to reach 50% inhibition of classical pathway complement activation; Table 1
Experimental: Inhibition of complement activation. The ability of the compstatin analogs to inhibit the activation of the classical pathway of complement was assessed by ELISA as described elsewhere (Katragadda et al., 2006, supra; Mallik et al., 2005, supra). The percent inhibition was plotted against the peptide concentration, and the resulting data set was fitted to the logistic dose-response function using Origin 8.0 software. IC50 values were obtained from the fitted parameters that produced the lowest χ2 value. Each analog was assayed at least three times.

[2] = Solubility in WFI and DPBS; UPLC C18 retention time as hydrophobicity; settings: for solubility at 5 min: pH 7.4; for Hydrophobicity Retention Time: UPLC analysis on a C18 column
Experimental: Approximately 5 mg of each peptide (acetate form) was weighed out into separate LoBind Eppendorf tubes and 50 μL water for injection (WFI) was added to each tube. Each sample was centrifuged at 13000 rpm for 2 min and diluted for measuring the optical density (OD) at 280 nm using a NanoDrop 2000 spectrophotometer (ThermoScientific, Wilmington, Del.). Each concentrated sample was diluted 1:20 into Dulbecco's phosphate buffered saline (DPBS, without potassium and calcium; Invitrogen, Carlsbad, Calif.). The samples were monitored for precipitation, and each sample was vortexed for 5 min and centrifuged at 13000 rpm for 2 min. The OD of each DPBS supernatant was measured to determine peptide concentration at saturation.
In addition, the ultra performance liquid chromatography (UPLC) retention time of these peptides on a C18 column was measured to reflect their apparent relative hydrophobicity (Table 3).

[3] = target: T1, C3b (Homo sapiens, UniProt P01024); settings: value from previous publication (WO2010/127336), cited from earlier work
T1 construct: Biotinylated C3b was captured site-specifically on a streptavidin chip
T1 sequence (P01024 23-667 limits assumed): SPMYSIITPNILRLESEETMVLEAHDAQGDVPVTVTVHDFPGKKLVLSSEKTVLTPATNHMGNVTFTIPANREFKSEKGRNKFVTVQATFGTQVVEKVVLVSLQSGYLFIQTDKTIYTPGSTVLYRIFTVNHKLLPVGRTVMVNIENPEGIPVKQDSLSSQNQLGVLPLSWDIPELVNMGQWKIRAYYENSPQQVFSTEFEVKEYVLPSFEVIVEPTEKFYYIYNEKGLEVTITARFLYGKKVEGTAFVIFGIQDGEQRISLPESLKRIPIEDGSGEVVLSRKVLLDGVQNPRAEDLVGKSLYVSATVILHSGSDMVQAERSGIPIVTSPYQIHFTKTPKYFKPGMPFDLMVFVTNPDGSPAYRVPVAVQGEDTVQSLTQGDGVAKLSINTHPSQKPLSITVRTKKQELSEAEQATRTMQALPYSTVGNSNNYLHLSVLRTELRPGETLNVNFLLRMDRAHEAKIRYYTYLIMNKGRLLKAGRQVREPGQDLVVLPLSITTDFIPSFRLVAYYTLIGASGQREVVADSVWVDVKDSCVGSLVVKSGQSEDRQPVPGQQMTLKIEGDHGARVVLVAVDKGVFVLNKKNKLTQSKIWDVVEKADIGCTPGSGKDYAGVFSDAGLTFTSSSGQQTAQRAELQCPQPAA
T1 sequence (P01024 749-1663 partner limits assumed): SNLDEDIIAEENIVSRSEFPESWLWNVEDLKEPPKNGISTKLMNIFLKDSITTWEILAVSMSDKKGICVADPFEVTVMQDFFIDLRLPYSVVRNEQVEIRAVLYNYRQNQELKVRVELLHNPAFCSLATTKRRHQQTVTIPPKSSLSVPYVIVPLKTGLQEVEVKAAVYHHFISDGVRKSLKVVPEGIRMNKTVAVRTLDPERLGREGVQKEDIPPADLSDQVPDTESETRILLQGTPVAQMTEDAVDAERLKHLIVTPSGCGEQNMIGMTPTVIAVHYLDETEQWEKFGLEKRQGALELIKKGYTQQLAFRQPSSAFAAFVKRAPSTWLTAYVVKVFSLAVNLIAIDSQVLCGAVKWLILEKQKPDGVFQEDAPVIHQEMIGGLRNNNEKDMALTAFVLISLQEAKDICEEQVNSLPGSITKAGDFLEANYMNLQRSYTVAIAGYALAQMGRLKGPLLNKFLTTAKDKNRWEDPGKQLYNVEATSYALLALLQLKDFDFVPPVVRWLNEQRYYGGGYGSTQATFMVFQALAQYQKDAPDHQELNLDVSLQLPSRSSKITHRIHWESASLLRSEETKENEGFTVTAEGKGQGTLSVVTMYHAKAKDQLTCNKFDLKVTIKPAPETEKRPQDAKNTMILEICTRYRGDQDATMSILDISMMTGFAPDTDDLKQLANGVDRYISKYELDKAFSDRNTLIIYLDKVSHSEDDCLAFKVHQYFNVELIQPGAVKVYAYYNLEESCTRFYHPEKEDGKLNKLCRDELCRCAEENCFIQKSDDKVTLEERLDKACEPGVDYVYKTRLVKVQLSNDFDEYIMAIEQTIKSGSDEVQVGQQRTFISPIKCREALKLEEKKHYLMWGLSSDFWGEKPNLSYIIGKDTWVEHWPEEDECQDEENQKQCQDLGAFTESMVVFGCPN

[4] = target: T1, C3b; assay: SPR kinetic analysis of binding to immobilized C3b (Biacore, single cycle kinetics); settings: for ka: association rate / Kd / koff: Table 1, N-terminal analogs; for Kd: read-out: KD: binding constant from SPR; for koff: read-out: kd: dissociation rate
Experimental: SPR analysis. The interaction of the compstatin analogs with C3b was characterized using a Biacore 3000 instrument (GE Healthcare, Corp., Piscataway, N.J.). The running buffer was PBS, pH 7.4 (10 mM sodium phosphate, 150 mM NaCl) with 0.005% Tween-20. Biotinylated C3b was captured site-specifically on a streptavidin chip at about 3000 and 5000 RU density; two untreated flow cells were used as reference surface. For kinetic analysis, sets of five increasing concentrations of a particular compound were injected over the chip surface one after the other in a single cycle. […] Processed biosensor data were globally fitted to a 1:1 Langmuir binding model (kindly provided by GE Helthcare), and the equilibrium dissociation constant (KD) was calculated from the equation KD=kd/ka. Each assay was performed at least twice.

[5] = target: T2, C3 (Homo sapiens, UniProt P01024); assay: Plasma protein binding in human plasma (PEG precipitation, Mono Q FPLC, UPLC-MS); type: in vitro ADME; settings: 20 μM peptide, Mono Q fractions
T2 construct: from tissue; host or cells: fresh human plasma (lepirudin-anticoagulated)
T2 sequence (P01024 23-1663): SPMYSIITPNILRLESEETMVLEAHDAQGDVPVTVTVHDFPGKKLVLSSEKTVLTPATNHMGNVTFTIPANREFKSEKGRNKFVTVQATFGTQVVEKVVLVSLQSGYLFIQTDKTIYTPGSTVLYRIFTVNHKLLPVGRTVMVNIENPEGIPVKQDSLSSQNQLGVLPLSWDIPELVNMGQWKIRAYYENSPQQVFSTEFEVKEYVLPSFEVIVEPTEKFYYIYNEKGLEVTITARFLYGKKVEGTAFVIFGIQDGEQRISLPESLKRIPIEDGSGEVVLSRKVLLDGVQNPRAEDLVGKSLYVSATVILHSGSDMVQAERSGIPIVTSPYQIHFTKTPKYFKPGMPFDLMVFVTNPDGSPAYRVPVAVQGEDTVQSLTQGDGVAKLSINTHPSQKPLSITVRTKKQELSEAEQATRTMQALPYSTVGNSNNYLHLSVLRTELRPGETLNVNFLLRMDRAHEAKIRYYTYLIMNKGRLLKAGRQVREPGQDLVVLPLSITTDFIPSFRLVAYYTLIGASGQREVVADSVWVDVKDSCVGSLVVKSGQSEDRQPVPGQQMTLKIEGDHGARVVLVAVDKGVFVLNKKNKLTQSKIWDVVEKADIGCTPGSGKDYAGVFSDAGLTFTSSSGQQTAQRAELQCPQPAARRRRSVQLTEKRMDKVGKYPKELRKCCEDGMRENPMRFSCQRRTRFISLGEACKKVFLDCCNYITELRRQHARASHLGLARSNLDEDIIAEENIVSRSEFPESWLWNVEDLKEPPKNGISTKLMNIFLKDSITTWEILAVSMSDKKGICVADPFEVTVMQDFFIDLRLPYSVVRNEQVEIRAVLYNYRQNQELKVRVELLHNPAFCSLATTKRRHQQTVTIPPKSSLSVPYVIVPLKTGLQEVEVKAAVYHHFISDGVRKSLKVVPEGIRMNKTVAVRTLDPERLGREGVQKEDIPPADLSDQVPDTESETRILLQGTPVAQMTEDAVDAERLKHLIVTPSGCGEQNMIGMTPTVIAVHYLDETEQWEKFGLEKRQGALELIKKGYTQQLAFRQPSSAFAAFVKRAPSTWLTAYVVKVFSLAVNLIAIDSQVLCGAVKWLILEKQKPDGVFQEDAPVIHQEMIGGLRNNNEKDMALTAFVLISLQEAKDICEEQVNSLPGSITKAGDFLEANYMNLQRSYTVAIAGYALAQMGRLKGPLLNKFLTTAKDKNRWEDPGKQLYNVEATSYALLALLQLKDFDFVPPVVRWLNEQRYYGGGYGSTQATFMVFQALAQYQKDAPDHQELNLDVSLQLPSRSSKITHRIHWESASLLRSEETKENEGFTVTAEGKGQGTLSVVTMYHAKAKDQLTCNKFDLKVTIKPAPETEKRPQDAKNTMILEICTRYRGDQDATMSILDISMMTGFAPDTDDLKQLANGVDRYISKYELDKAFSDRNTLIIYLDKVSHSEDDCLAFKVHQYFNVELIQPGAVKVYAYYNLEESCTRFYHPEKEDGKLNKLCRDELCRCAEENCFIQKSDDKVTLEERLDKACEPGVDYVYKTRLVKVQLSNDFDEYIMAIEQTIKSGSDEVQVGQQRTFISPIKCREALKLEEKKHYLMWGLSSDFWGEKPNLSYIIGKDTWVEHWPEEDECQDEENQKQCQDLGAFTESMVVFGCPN
Experimental: Plasma protein binding. Cp30 (SEQ ID NO:7) was spiked in 500 μL of fresh human plasma containing lepirudin (3.75 units/nil) so that the final peptide concentration was 20 μM (C3: 1.2 mg/mL, 6.4 μm). A control sample was prepared in the same way using Cp30 (SEQ ID NO:7) and milli-Q water to determine the area of peptide in UPLC-MS at 1 μM. The plasma sample was equilibrated at room temperature for 10 min. Then, 500 μL of 30% PEG in milli-Q water (MW3350) was slowly added to the plasma sample while mixing. The mixture was centrifuged at 14000 rpm for 10 min to separate the supernatant. The pellet was dissolved in 1000 μL of FPLC buffer A and separated by FPLC using Mono Q 5/5 column and fractions was collected at 1 mL per tube. 0.5 mL of each fraction was mixed with same volume off 4% H3PO4 for SPE and UPLC-MS analysis.
UPLC-MS analysis. […] Each sample was injected in quadruplicates. […] The analytical column temperature was held at 40° C.

[6] = in vivo; set-up: species or system baboons (P. Anubis); settings: baboon (P. Anubis), iv, 10 mg
Experimental: Juvenile baboons (P. Anubis, Baboon Research Resources, University of Oklahoma) weighing 5-8 kg were used. Two baboons were used for the study, one for each compound. Each animal received a bolus dose of peptide (10 mg) by injection through the peripheral vein. Blood samples for the LC-MS/MS assay were collected in 1-ml plastic tubes containing […] lepirudin, and centrifuged at 2000 g for 20 min at 4° C. for plasma separation. Plasma samples were stored at −70° C. Blood samples were collected at pre-determined time intervals after injection of Cp30 (SEQ ID NO:7) or the Cp30 (SEQ ID NO:7)-ABM2 conjugate. Samples were treated with SPE and analyzed using LC-MS/MS. Calibration curves were created using standard peptides at various concentrations in plasma to determine peptide concentration in each sample.
Extraction of compstatin analogs from plasma samples by SPE. […] Samples were diluted with 4% H3PO4. After loading a sample, washing was carried out with 500 μL of water and 10% ACN with 0.1% formic acid. […] Samples for LC-MS were diluted 1:2 to 1:11 in milli-Q water with 10% ACN with 0.1% formic acid.
LC-MS/MS analysis. […] Each sample was injected in triplicate. […] The analytical column temperature was held at 40° C. Peptides were separated at flow rate 0.15 mL/min. The gradient was linear 15-55% B (0.1% formic acid in acetonitrile) over 7 min.

[7] = Stability in human plasma at 37° C. (SPE, UPLC-MS); settings: fresh human plasma
Experimental: Plasma stability. Fresh human plasma containing lepirudin (3.75 units/ml) was incubated at 37° C. with Cp30 (SEQ ID NO:7), Cp40 (SEQ ID NO:18) or control peptide 2B at a final concentration of 20 μM each. Samples of 100 μL were taken for solid phase extraction. A 96-well plate HLB Oasis 30 μm 10 mg (Waters, Milford, Mass.) was employed for extraction. The SPE material was conditioned by addition of 500 μL each of methanol and ACN followed by addition of 500 μL of milli-Q water. Sample was diluted 1:1 with 4% H3PO4. After loading the sample, washing was carried out twice with 500 μL of 10% ACN in 0.1% formic acid. Sample was eluted with 200 μL of 65% ACN in 0.1% formic acid and collected in the Eppendorf LoBind collection plate. Sample for UPLC-MS was diluted 1:10 in milli-Q water with 0.1% formic acid. Cp20 (SEQ ID NO:3) was spiked in each sample before SPE as an internal standard.
UPLC-MS analysis. UPLC-MS analysis was performed on a SYNAPT HDMS (Waters, Milford, Mass.) equipped with an ESI source controlled by MassLynx 4.1 software (Waters). Each sample was injected in quadruplicates. An online ACQUITY UPLC (Waters) system was used for peptide separation by reversed-phase liquid chromatography. The capillary voltage was 3.2 kV, the cone voltage was 30 V and the source temperature was 120° C. [Glu1]-fibrinogen peptide was used for lock-mass correction with a sampling rate of 30 s. […]

[8] = Plasma levels and half-life after i.v. injection in cynomolgus monkeys; settings: 2 mg/kg i.v., terminal log-linear portion (1-24 h)
Experimental: Primate studies and sample collection. Evaluation of plasma half-life and generation of major metabolites was performed at the Simian Conservation Breeding and Research Center (SICONBREC, Makati City, Philippines) in cynomolgus monkeys (Macaca fascicularis). […] Blood samples (1-2 mL) were collected immediately before and at various time points after compound injection (2, 5 and 30 min; 1, 2, 4, 6, and 24 hours) in EDTA-coated Vacutainer tubes to prevent coagulation and complement activation, and centrifuged at ˜800×g for 10 min to obtain plasma. Plasma samples were immediately frozen and stored for further analysis. All NHP studies were performed in accordance with animal welfare laws and regulations.
Analysis of plasma samples. Prior to analysis by UPLC-MS, compstatin analogs in the plasma samples were extracted by solid phase extraction (SPE) in a 96-well plate format (HLB Oasis 30 μm, 10 mg; Waters, Milford, Mass.). […] Eluted peptides were directly analyzed by HDMS; the ESI source capillary voltage was set to 3.2 kV, the cone voltage to 30 V and the source temperature to 120° C. […]
Determination of plasma half-life. […] All calibration samples were subjected to SPE and measured using UPLC-HDMS as described above. […] For the pharmacokinetic analysis, the plasma concentration (Cp) at each time point was calculated from the extracted peak area of each peptide using the corresponding standard curve.

[9] = Dulbecco's phosphate buffered saline

| Structure (SMILES) | IC50 [1] | solubility at 5 min [2, 9] | Hydrophobicity Retention Time [2] | ka: association rate [4] | Kd [4] | koff [4] | other results |
| --- | --- | --- | --- | --- | --- | --- | --- |
| CC[C@H](C)[C@H](NC(C)=O)C(=O)N[C@H]1CSSC[C@@H](C(=O)N[C@H](C(N)=O)[C@@H](C)O)NC(=O)[C@H](CCCNC(=N)N)NC(=O)[C@H](Cc2c[nH]cn2)NC(=O)[C@H](C)NC(=O)CNC(=O)[C@H](Cc2c[nH]c3ccccc23)NC(=O)[C@H](CC(=O)O)NC(=O)[C@H](CCC(N)=O)NC(=O)[C@H](Cc2cn(C)c3ccccc23)NC(=O)[C@H](C(C)C)NC1=O [4(1MeW), reference compound] | 0.132 ± 0.007 µM | 3500 µg/mL (≈ 2150 µM) | 5.09 min | – | – | – | – |
| CC[C@H](C)[C@H](NC(C)=O)C(=O)N[C@H]1CSSC[C@@H](C(=O)N(C)[C@H](C(N)=O)[C@@H](C)CC)NC(=O)[C@H](CCCNC(=N)N)NC(=O)[C@H](Cc2c[nH]cn2)NC(=O)[C@H](C)NC(=O)CN(C)C(=O)[C@H](Cc2c[nH]c3ccccc23)NC(=O)[C@H](CC(=O)O)NC(=O)[C@H](CCC(N)=O)NC(=O)[C@H](Cc2cn(C)c3ccccc23)NC(=O)[C@H](C(C)C)NC1=O [Cp20, reference compound] | – | – | 5.33 min | – | – | – | ka: association rate [3]: 1.9 10^6/Ms; kd: dissociation rate [3]: 4.0 10^−3/s; Kd ([3]; read-out: KD: binding constant from SPR): 0.0024 µM; solubility at 5 min ([2]; Dulbecco's phosphate buffered saline (DPBS)): 2700 µg/mL (≈ 1620 µM); Solubility WFI ([2]; water for injection, OD (280 nm) at saturation, acetate form): 13000 µg/mL (≈ 7790 µM) |
| CC[C@H](C)[C@H](NC)C(=O)N[C@H]1CSSC[C@@H](C(=O)N(C)[C@H](C(N)=O)[C@@H](C)CC)NC(=O)[C@H](CCCNC(=N)N)NC(=O)[C@H](Cc2c[nH]cn2)NC(=O)[C@H](C)NC(=O)CN(C)C(=O)[C@H](Cc2c[nH]c3ccccc23)NC(=O)[C@H](CC(=O)O)NC(=O)[C@H](CCC(N)=O)NC(=O)[C@H](Cc2cn(C)c3ccccc23)NC(=O)[C@H](C(C)C)NC1=O [peptide 1] | 0.18 ± 0.017 µM | – | – | 1.3 ± 0.3 10^6/Ms | 0.0186 ± 0.0035 µM | 0.0248 ± 0.0073 s⁻¹ | Binding affinity by SPR, in words ([4]; compared with Cp40 (peptide 14)): high binding affinity |
| CC[C@H](C)[C@H](NC(=O)CN)C(=O)N[C@H]1CSSC[C@@H](C(=O)N(C)[C@H](C(N)=O)[C@@H](C)CC)NC(=O)[C@H](CCCNC(=N)N)NC(=O)[C@H](Cc2c[nH]cn2)NC(=O)[C@H](C)NC(=O)CN(C)C(=O)[C@H](Cc2c[nH]c3ccccc23)NC(=O)[C@H](CC(=O)O)NC(=O)[C@H](CCC(N)=O)NC(=O)[C@H](Cc2cn(C)c3ccccc23)NC(=O)[C@H](C(C)C)NC1=O [peptide 2] (H-GICV[Trp(1-Me)]QDW[Sar]AHRC[NMeI]-NH2; disulfide 3-13) | 0.113 ± 0.016 µM | – | – | 1.2 ± 0.3 10^6/Ms | 0.0025 ± 0.0005 µM | 0.0029 ± 0.0002 s⁻¹ | – |
| CC[C@H](C)[C@H](NC(=O)CNC)C(=O)N[C@H]1CSSC[C@@H](C(=O)N(C)[C@H](C(N)=O)[C@@H](C)CC)NC(=O)[C@H](CCCNC(=N)N)NC(=O)[C@H](Cc2c[nH]cn2)NC(=O)[C@H](C)NC(=O)CN(C)C(=O)[C@H](Cc2c[nH]c3ccccc23)NC(=O)[C@H](CC(=O)O)NC(=O)[C@H](CCC(N)=O)NC(=O)[C@H](Cc2cn(C)c3ccccc23)NC(=O)[C@H](C(C)C)NC1=O [peptide 3, Sar-Ile-[Cys-Val-Trp(Me)-Gln-Asp-Trp-Sar-Ala-His-Arg-Cys]-mIle-NH2] | 0.082 ± 0.014 µM | 6900 µg/mL (≈ 4070 µM) | 4.60 min | 1.9 ± 0.5 10^6/Ms | 0.0016 µM | 0.0029 ± 0.0003 s⁻¹ | Fraction of peptide co-eluted with C3 [5]: 88.0%; Fraction of peptide co-eluted with C3c [5]: 4.5%; Fraction of peptide located in the flow-through [5]: 7.5%; half-life [6]: 5 h; remaining at 120 h, 20 μM [7]: > 55%; solubility ([2]; water for injection): > 50000 µg/mL; Plasma half-life [8]: 10.1 h |
| CC[C@H](C)[C@H](NC(=O)[C@@H](N)Cc1ccc(O)cc1)C(=O)N[C@H]1CSSC[C@@H](C(=O)N(C)[C@H](C(N)=O)[C@@H](C)CC)NC(=O)[C@H](CCCNC(=N)N)NC(=O)[C@H](Cc2c[nH]cn2)NC(=O)[C@H](C)NC(=O)CN(C)C(=O)[C@H](Cc2c[nH]c3ccccc23)NC(=O)[C@H](CC(=O)O)NC(=O)[C@H](CCC(N)=O)NC(=O)[C@H](Cc2cn(C)c3ccccc23)NC(=O)[C@H](C(C)C)NC1=O [peptide 4] | 0.072 ± 0.01 µM | – | – | 2.1 ± 0.3 10^6/Ms | – | – | – |
| CC[C@H](C)[C@@H](C(N)=O)N(C)C(=O)[C@@H]1CSSC[C@H](NC(=O)[C@H](Cc2c[nH]c3ccccc23)NC(C)=O)C(=O)N[C@@H](C(C)C)C(=O)N[C@@H](Cc2cn(C)c3ccccc23)C(=O)N[C@@H](CCC(N)=O)C(=O)N[C@@H](CC(=O)O)C(=O)N[C@@H](Cc2c[nH]c3ccccc23)C(=O)N(C)CC(=O)N[C@@H](C)C(=O)N[C@@H](Cc2c[nH]cn2)C(=O)N[C@@H](CCCNC(=N)N)C(=O)N1 [peptide 19] (Ac-WCV[Trp(1-Me)]QDW[Sar]AHRC[NMeI]-NH2; disulfide 2-12) | – | < 200 µg/mL | – | 3.8 ± 0.3 10^6/Ms | 0.0005 µM | 0.0017 ± 0.0003 s⁻¹ | solubility ([2]; PBS): < 100 µM |
| CC[C@H](C)[C@@H](C(N)=O)N(C)C(=O)[C@@H]1CSSC[C@H](NC(=O)CNC(=O)[C@@H](N)Cc2ccc(O)cc2)C(=O)N[C@@H](C(C)C)C(=O)N[C@@H](Cc2cn(C)c3ccccc23)C(=O)N[C@@H](CCC(N)=O)C(=O)N[C@@H](CC(=O)O)C(=O)N[C@@H](Cc2c[nH]c3ccccc23)C(=O)N(C)CC(=O)N[C@@H](C)C(=O)N[C@@H](Cc2c[nH]cn2)C(=O)N[C@@H](CCCNC(=N)N)C(=O)N1 [peptide 20] (H-YGCV[Trp(1-Me)]QDW[Sar]AHRC[NMeI]-NH2; disulfide 3-13) | – | – | – | 2.1 ± 0.3 10^6/Ms | 0.0035 ± 0.0003 µM | 0.0073 ± 0.0014 s⁻¹ | – |
